Experimental data taken from paper PMC11117723, “Benzene with Alkyl Chains Is a Universal Scaffold for Multivalent Virucidal Antivirals” (ACS Central Science, 2024).
“Also recorded” adds a separate entry of the source. Like-named read-outs stand apart in the source and are kept apart here.

Tests used:
Vero cells = experiment: Vero cell cytotoxicity (MTS assay); assay type: cell-based; settings: 24 h, read-out: CC50 (95% CI), Vero cells
SARS-CoV-2 Alpha = assay type: in vivo, Syrian hamster
HSV-2 [1] = experiment: HSV-2 inhibition under four treatment conditions (cell pretreatment, virus pretreatment, cotreatment, post-treatment); assay type: cell-based
HSV-2 [2] = experiment: HSV-2 DNA release (DNA exposure) assay with DNase; settings: 43.2 and 86.5 μM
Experimental: To determine whether the virucidal effect is caused by the damage to the viral particles, we performed DNA release assays. Briefly, we incubated HSV-2 and B6C11S mixtures with DNase or buffer, inactivated the DNase, and then quantified the DNA amounts in the two samples (Figure 2c).

MDCK cells = settings: read-out: CC50 (95% CI), MDCK cells
TZM-bl cells = experiment: TZM-bl cell cytotoxicity (WST-1); settings: read-out: CC50 (95% CI), TZM-bl cells; HIV-1 line
Raji cells = experiment: Raji cell cytotoxicity (Zombie NIR flow cytometry); settings: read-out: CC50 (95% CI), Raji cells; EBV line
HEK293T cells = experiment: HEK293T cell cytotoxicity (Zombie NIR flow cytometry); settings: read-out: CC50 (95% CI), 293T cells; HEK293T cells; KSHV line
HSV-2 [3] = experiment: HSV-2 inhibition (dose response) plaque assay on Vero cells; assay type: cell-based; settings: Vero cells, virus pre-incubated with compound 1 h, read-out: HSV-2 EC50 (95% CI)
[4] = Vero cell cytotoxicity (MTS assay); assay type: cell-based; settings: African green monkey, Vero cells, read-out: CC50 (95% CI), Vero cells
SARS-CoV-2 (Alpha) = experiment: SARS-CoV-2 (alpha strain) inhibition plaque assay on Vero E6 cells; assay type: cell-based; settings: Severe acute respiratory syndrome coronavirus 2, Vero C1008, read-out: SARS-CoV-2 (Alpha) EC50 (95% CI)
SARS-CoV-2 (Omicron) = experiment: SARS-CoV-2 Omicron dose-response assay on Vero E6 cells; assay type: cell-based; settings: Severe acute respiratory syndrome coronavirus 2, Vero C1008, read-out: SARS-CoV-2 (Omicron) EC50 (95% CI)
HIV-1 (YU-2) = HIV-1 (YU-2) inhibition assay on TZM-bl cells (luciferase); assay type: cell-based; settings: Human immunodeficiency virus 1, read-out: HIV-1 EC50 (95% CI)
GFP-EBV B95-8 (EBV) = experiment: microbe, parasite or virus in culture; assay type: cell-based, Epstein–Barr virus (EBV); settings: human gammaherpesvirus 4, read-out: EBV EC50 (95% CI)
GFP-KSHV (KSHV) = experiment: microbe, parasite or virus in culture; assay type: cell-based, Kaposi’s sarcoma-associated herpesvirus (KSHV); settings: Human gammaherpesvirus 8, HEK-293T, read-out: KSHV EC50 (95% CI)
[5] = test system: Influenza A/Netherlands/2009 (H1N1); experiment: H1N1 inhibition assay on MDCK cells (ICC); assay type: cell-based; settings: Influenza A virus, read-out: H1N1 EC50 (95% CI)
SARS-CoV-2 = SARS-CoV-2 Syrian hamster model, intranasal instillation from 12 h; assay type: in vivo; settings: B3C9S solution by intranasal instillation, 1.5, 4.5, 6 mg/kg/day from 12 h
Experimental: Control Control *** Control
80 Placebo 80 Placebo 80 Placebo
Days post infection Days post infection Days post infection
Figure S10. Body weight of Syrian hamsters treated with 1.5mg/kg/day B3C9S (a), 4.5mg/kg/day B3C9S (b), 6mg/kg/day B3C9S (c) by intranasal instillation. 25 female Syrian hamsters were randomly assigned into five groups (control, placebo and three doses of B3C9S), each containing 5 hamsters. At day 0, each hamster was weighed and inoculated intranasally with 100 μl PBS (control) or 100 μl […] SARS-CoV-2 (placebo and B3C9S). Starting from 12 h after the inoculation, the hamsters in the placebo group and the […]
μg/μl) every day, respectively. The body weight of each hamster was measured every 12 h.
The weight measurements of each hamster were normalized by the initial weight and plotted against time post infection. The error bars represent the means ± standard deviations (n = 5). The asterisks represent the p value (*, <0.05; **, <0.01; ***, <0.001) calculated by two-tailed unpaired t test.
(also on this page, place not known: Body weight (%) Body weight (%) Body weight (%))

in vitro [6] = settings: African green monkey
in vitro [7] = settings: dog
[8] = TZM-bl cell cytotoxicity (WST-1); settings: human
[9] = Raji cell cytotoxicity (Zombie NIR flow cytometry); settings: human
[10] = HEK293T cell cytotoxicity (Zombie NIR flow cytometry); settings: human
[11] = read-out: CC50 (95% CI), Vero E6 cells, SARS-CoV-2 (Alpha) line

With O=S(=O)(O)OCCCCCCCCCCCSCc1c(CSCCCCCCCCCCCOS(=O)(=O)O)c(CSCCCCCCCCCCCOS(=O)(=O)O)c(CSCCCCCCCCCCCOS(=O)(=O)O)c(CSCCCCCCCCCCCOS(=O)(=O)O)c1CSCCCCCCCCCCCOS(=O)(=O)O [B6C11S] the CC50 (Vero cells) was 200 µM, the “body weight change of infected hamsters” value (SARS-CoV-2 Alpha; […], vs untreated group) was “no significant change” and the “body weight change of infected hamsters” value (SARS-CoV-2 Alpha; hamster, in vivo) was “decreased the body weight change”. The “histopathological evaluation of lung tissues” value (SARS-CoV-2 Alpha; hamster, in vivo) was “improved pulmonary conditions”, the “infectious viral titer (TCID50) in the lungs vs untreated” value (SARS-CoV-2 Alpha; hamster, in vivo) was “significantly decreased the viral titer; also recorded: significant reduction in the infectious viral load” and the “severe lung damage (histopathology categories E and F)” value (SARS-CoV-2 Alpha; hamster, in vivo) was “reducing severe lung damage”. The “viral RNA copies in lung vs untreated” value (SARS-CoV-2 Alpha; hamster, in vivo) was “significantly decreased viral RNA copies”, the “viral RNA levels in oral swab vs untreated” value (SARS-CoV-2 Alpha; hamster, in vivo) was “significantly lower viral RNA levels” and the “viral titers (viral RNA) in swab samples and lung tissues vs untreated” value (SARS-CoV-2 Alpha; hamster, in vivo) was “did not find any notable differences; also recorded: No statistical difference”. The “HSV-2 inhibition, cell pretreatment” value (HSV-2 [1]; condition (i) cell pretreatment, 21.6 μM) was “no inhibition”, the “decrease of percentage of infected cells” value (HSV-2 [1]; condition (ii) virus pretreatment, 5.4 μM) was “over 85%” and the “decrease of percentage of infected cells” value (HSV-2 [1]; condition (iii) cotreatment, 5.4 μM) was “over 85%”. For the same compound, the “decrease of percentage of infected cells” value (HSV-2 [1]; condition (iv) post-treatment, 21.6 μM) was 85%, the “release of viral DNA (HSV-2)” value (HSV-2 [2]) was “induced the release of viral DNA” and the CC50 (Vero E6 cells; [11]) was 17.5 µM. It also gave a CC50 (Vero E6 cells; read-out: CC50 (95% CI), Vero E6 cells, value repeated in the SARS-CoV-2 (Omicron) line) of 17.5 µM, a CC50 (MDCK cells) of over 5.4 µM and a CC50 (TZM-bl cells) of over 54 µM. It also gave a CC50 (Raji cells) of over 162 µM and a CC50 (HEK293T cells) of over 162 µM.
Work on O=S(=O)(O)OCCCCCCCCCSCc1cc(CSCCCCCCCCCOS(=O)(=O)O)cc(CSCCCCCCCCCOS(=O)(=O)O)c1 [B3C9S] yielded an EC50 (HSV-2 [3]; Human alphaherpesvirus 2, Vero) of 7.9 µM, an EC50 (HSV-2 [3]) of 7.92 µM and a CC50 at 24 h [4] of 331 µM. The EC50 (SARS-CoV-2 (Alpha)) was 1.1 µM, the EC50 (SARS-CoV-2 (Omicron)) was 1.37 µM and the EC50 (HIV-1 (YU-2)) was 6.34 µM. The EC50 (GFP-EBV B95-8 (EBV)) was 46.5 µM, the EC50 (GFP-KSHV (KSHV)) was 48.2 µM and the EC50 [5] was 5.11 µM. The “efficacy with aerosol treatment compared with B6C11S” value (SARS-CoV-2 Alpha; hamster, in vivo) was “less effective”, the “viral titer (viral RNA) in the lungs” value (SARS-CoV-2 Alpha; hamster, in vivo) was “significantly decreased the viral titer” and the “viral titer (viral RNA) in the oral swab” value (SARS-CoV-2 Alpha; hamster, in vivo) was “significantly reduced”. For the same compound, the “viral titer in oral swab and lung tissues vs untreated” value (SARS-CoV-2 Alpha; hamster, in vivo) was “No statistical difference”, the “body weight loss of infected hamsters” value (SARS-CoV-2) was “reduced the body weight loss” and the CC50 (in vitro [6]) was 14.7 µM. The CC50 (in vitro [7]) was 16.6 µM, the CC50 at 6 h ([8]; TZM-bl cells) was over 113 µM and the CC50 at 2 days ([9]; Raji cells) was over 341 µM. The CC50 at 2 days ([10]; HEK293T cells) was 162 µM.
In the case of O=S(=O)(O)OCCCCCCCCCCn1cc(COc2cc(OCc3cn(CCCCCCCCCCOS(=O)(=O)O)nn3)cc(OCc3cn(CCCCCCCCCCOS(=O)(=O)O)nn3)c2)nn1 [BTA3C10S], the EC50 (HSV-2 [3]; Human alphaherpesvirus 2, Vero) is reported as 17.1 µM, the CC50 at 24 h [4] is reported as over 371 µM and the EC50 (SARS-CoV-2 (Alpha)) is reported as over 93 µM. The EC50 (HIV-1 (YU-2)) was 5.25 µM, the EC50 [5] was 22.9 µM and the CC50 (in vitro [6]) was over 929 µM. It also gave a CC50 (in vitro [7]) of over 930 µM and a CC50 at 6 h [8] of over 93 µM.
For O=S(=O)(O)OCCCCCCCCCSCc1c(CSCCCCCCCCCOS(=O)(=O)O)c(CSCCCCCCCCCOS(=O)(=O)O)c(CSCCCCCCCCCOS(=O)(=O)O)c(CSCCCCCCCCCOS(=O)(=O)O)c1CSCCCCCCCCCOS(=O)(=O)O [B6C9S], the CC50 (Vero cells) was 42.7 µM, the CC50 (Vero E6 cells; [11]) was 3.9 µM and the CC50 (TZM-bl cells) was 10.5 µM.
For O=S(=O)(O)OCCCCCCCCCSCC(CSCCCCCCCCCOS(=O)(=O)O)(CSCCCCCCCCCOS(=O)(=O)O)CSCCCCCCCCCOS(=O)(=O)O [P4C9S], the EC50 (HSV-2 [3]; Human alphaherpesvirus 2, Vero) was 6.5 µM, the EC50 (HSV-2 [3]) was 6.48 µM and the CC50 at 24 h [4] was 185 µM. For the same compound, the EC50 (SARS-CoV-2 (Alpha)) was 0.48 µM, the EC50 (HIV-1 (YU-2)) was 1.94 µM and the EC50 (GFP-EBV B95-8 (EBV)) was 33.9 µM. It also gave an EC50 (GFP-KSHV (KSHV)) of 20.8 µM, a CC50 (in vitro [6]) of 4 µM and a CC50 at 6 h [8] of 18.4 µM. The CC50 at 2 days [9] was over 276 µM and the CC50 at 2 days [10] was 122 µM.
